Laboratory results as given in patent US10683546B2, “Kit for predicting treatment with glucocorticoids and method comprising the same” (UNIVERSIDAD DE CHILE, priority 2015, dated 2020).
Several values for one entry are separate records, joined by “and”; a condition that tells them apart may be missing. Equal entries are not always repeated.

Test system: GRα mRNA levels in PBMC
Test: Fold change ratio of GRα mRNA levels in PBMC of VKH patients after two weeks of prednisone (GC) treatment, RT-qPCR
Format: in vivo, human
Conditions: for Fold change ratio of GR levels in PBMC: after two weeks of Prednisone treatment vs baseline, oral 1 mg/Kg/day, 1 mg/kg/day; for GRα mRNA fold change median / GRα mRNA fold change range: two weeks of systemic GC therapy vs baseline
Protocol: 1) Obtainment of a 10-100 ml blood sample—preferably collected in the morning by automatic aspiration (vacutainer®) or manual (disposable syringe) methods. As an alternative or complementarily, the affected tissue or cell type may be completely or partially removed in order to carry out measurements.
2) After obtaining the sample, peripheral mononuclear cells (PBMC) are procured by the Ficoll gradient method, where a hydrophilic polysaccharide allows separating blood components into plasma, PBMC and erythrocytes. Alternatively or complementarily, the isolation of specific cell sub-types, such as CD4+, CD14+, CD8+cells, among others, may be conducted using a strategy based on magnetic microbeads or cell sorting by flow cytometry.
3) Subsequently, total RNA is extracted (Life Technologies, Inc.) by the TRIZOL method. For the obtainment of cDNA, 0.5 to 2 μg RNA is used as a template. Reverse transcription is performed preferably with kit ImProm-II™ Reverse Transcription System (Promega): a reaction mixture is prepared with 0.5 to 2 μg RNA, 1 μL Random Hexamers, 4 μL 5× ImProm-II™ RT buffer up to a final 20 μL volume, which is then incubated at 70° C. for 5 minutes, 4° C. for 5 minutes, 25° C. for 5 minutes, 42° C. for 60 minutes and 25° C. for 5 minutes.
4) cDNA is amplified using primers specific for GRα isoform: 5′-[…]-3′ (sense, SEQ ID NO: 1) and 5′-[…]-3′ (antisense, SEQ ID NO: 2) that correspond to nucleotides 2158-2178 and 2616-2635 of GRα cDNA.
5) For the amplification, a cDNA polymerase is used, preferably, the enzyme Go Taq® Flexi DNA Polymerase (Promega), starting the reaction with an initial 5 minute incubation at 95° C., followed then by 30 cycles as detailed: 95° C. for 30 seconds, 60° C. for 30 seconds and 72° C. for 30 seconds. For quantification by Real-Time qPCR a fluorophore is used, using preferably SYBR Green as fluorophore. GR measurements are made in duplicate. Finally, the results are standardized according to the expression of 18s rDNA gene that codes for the 18s ribosomal subunit.
6) Repetition of GRα mRNA level assessment according to the described protocol is carried out two weeks after initiating GC treatment. An increase is observed in GRα expression in sensitive patients and a reduction of the same in resistant patients (median of 5.5 versus 0.7, respectively).
7) Calculation of fold change ratio in GRα mRNA levels between the initial assessment and a later assessment after 2 weeks of GC treatment. GR fold change ratio=GR mRNA-2 weeks/GR mRNA at baseline
The method described in the present invention has been assessed in a group of 21 patients with Vogt-Koyanagi-Harada (VKH) disease, a specific uveitis subtype.
Cases: 13 patients affected by VKH with an inadequate response to oral treatment with 1 mg/Kg/day prednisone, in two separate doses, ⅔ of the daily dose in the morning and ⅓ of the dose in the afternoon.
Controls: 8 patients affected by VKH with an adequate response to the oral treatment with 1 mg/Kg/day prednisone, in two separate doses, ⅔ of the daily dose in the morning and ⅓ of the dose in the afternoon.
An analysis was conducted on the fold change ratio of GR transcript expression two weeks after treatment initiation, in comparison with baseline levels (prior to treatment initiation), segregating in accordance with the clinical response during follow-up. To calculate this fold change ratio, an arithmetic operation is conducted, that consists in dividing the GR levels obtained two weeks after the treatment and the baseline or initial GR levels. GR fold change ratio=GR mRNA-2 weeks/GR mRNA at baseline

[1] = patients clinically sensitive to GC

C[C@]12C=CC(=O)C=C1CC[C@@H]1[C@@H]2C(=O)C[C@@]2(C)[C@H]1CC[C@]2(O)C(=O)CO [Prednisone, prednisone]
Fold change ratio of GR levels in PBMC (individual patients with Vogt-Koyanagi-Harada disease clinically Resistant to GC): 0.667 and 0.225 and 0.243 and 0.841 and 0.759
Fold change ratio of GR levels in PBMC (individual patients with Vogt-Koyanagi-Harada disease clinically Sensitive to GC): 5.21 and 8.49 and 2.53 and 0.237 and 17.8 and 15 and 5.52
GRα mRNA fold change median [1]: 5.5
GRα mRNA fold change range [1]: 0.23-17.8
GRα mRNA fold change median (patients resistant to GC): 0.7
GRα mRNA fold change range (patients resistant to GC): 0.22-0.84
